Test results reported in patent US8076352B2, “Administration of carboline derivatives useful in the treatment of cancer and other diseases” (PTC Therapeutics, Inc., priority 2004, dated 2011).
pEC50: −log10 of the molar value.

system: hypoxia-inducible endogenous VEGF expression in HeLa cells; experiment: Hypoxia-inducible endogenous VEGF expression, VEGF ELISA of conditioned media (dose-response EC50); format: cell-based; conditions: HeLa cells, hypoxic conditions (1% O2)
Method: The ability of the compounds of the invention to modulate hypoxia-inducible endogenous VEGF expression may be analyzed as follows. VEGF protein levels may be monitored by an ELISA assay (R&D Systems). Briefly, HeLa cells may be cultured for 24-48 hours under hypoxic conditions (1% O2, 5% CO2, balanced with nitrogen) in the presence or absence of a compound of the invention. The conditioned media may then be assayed by ELISA, and the concentration of VEGF calculated from the standard ELISA curve of each assay.
A dose-response analysis may be performed using the ELISA assay and conditions described above. The conditions for the dose-response ELISA are analogous to those described above. A series of, e.g., seven different concentrations may be analyzed. […] Dose-response curves may be plotted using percentage inhibition versus concentration of the compound, and EC50 and CC50 values may be generated for each compound with the maximal inhibition set as 100% and the minimal inhibition as 0%.

pEC50 | SMILES
> 8.10 | COC(=O)c1ccc(C2c3[nH]c4ccc(Cl)cc4c3CCN2C(=O)Oc2ccc(F)cc2)cc1 (centres unmarked) [Compound 579]

same assay, conditions: Homo sapiens, HeLa cells under hypoxic conditions

pEC50 | SMILES
7.40 to 8.10 | CCCOC(=O)N1CCc2c([nH]c3ccc(Cl)cc23)C1c1cccc(Br)c1 (centres unmarked) [Compound 69]
6.00 to 6.70 | Clc1ccc2[nH]c3c(c2c1)CCN(Cc1ccco1)C3C1CCCCC1 (centres unmarked) [Compound 228]
6.00 to 6.70 | COCC(=O)N1CCc2c([nH]c3ccc(Br)cc23)C1c1cccc(Cl)c1 (centres unmarked) [Compound 218]
6.00 to 6.70 | Clc1ccc2[nH]c3c(c2c1)CCNC3c1cc(Br)cc(Br)c1 (centres unmarked) [Compound 223]
7.40 to 8.10 | COc1ccc(C2c3[nH]c4ccc(Br)cc4c3CCN2O)cc1 (centres unmarked) [Compound 110]
> 8.10 | CCOC(=O)N1CCc2c([nH]c3ccc(Cl)cc23)C1c1ccc(Cl)cc1 (centres unmarked) [Compound 11]
6.00 to 6.70 | Cc1ccc(NC(=S)N2CCc3c([nH]c4ccc(Cl)cc34)C2c2ccc(C(C)C)cc2)cc1 (centres unmarked) [Compound 338]
7.40 to 8.10 | CC(C)COC(=O)N1CCc2c([nH]c3ccc(Cl)cc23)C1c1ccccc1 (centres unmarked) [Compound 122]
7.40 to 8.10 | CC(C)COC(=O)N1CCc2c([nH]c3ccc(Br)cc23)C1c1ccccc1 (centres unmarked) [Compound 67]
< 6.00 | CCOC(=O)N1Cc2c([nH]c3ccc(Br)cc23)C(O)C1 (centres unmarked) [Compound 249]
7.40 to 8.10 | COC(=O)N1CCc2c([nH]c3ccc(Cl)cc23)C1c1ccccc1F (centres unmarked) [Compound 108]

More lines, now with the values behind:

SMILES | pEC50
O=C(OCCCl)N1CCc2c([nH]c3ccc(Cl)cc23)C1c1ccc([N+](=O)[O-])cc1 (centres unmarked) [Compound 89] | 7.40 to 8.10
Clc1ccc2[nH]c3c(c2c1)CCNC3C1CCCCC1 (centres unmarked) [Compound 287] | < 6.00
CCOC(=O)N1CCc2c([nH]c3ccc(Cl)cc23)C1c1cccc(CN2CCN(CCCN(C)C)CC2)c1 (centres unmarked) [Compound 389] | > 8.10
CC(=O)N1CCc2c([nH]c3ccc(Br)cc23)C1c1ccccc1 (centres unmarked) [Compound 152] | 6.70 to 7.40
O=C(OCCCl)N1CCc2c([nH]c3ccc(Cl)cc23)C1c1ccccc1 (centres unmarked) [Compound 114] | 7.40 to 8.10
Clc1ccc2[nH]c3c(c2c1)CCN(Cc1ccccc1)C3c1ccc2c(c1)OCO2 (centres unmarked) [Compound 176] | 6.00 to 6.70
CCOC(=O)N1CCc2c([nH]c3ccc(Cl)cc23)C1c1ccc(F)c(F)c1 (centres unmarked) [Compound 39] | > 8.10
CCOC(=O)N1CCc2c([nH]c3ccc(Br)cc23)C1c1cccc(Cl)c1Cl (centres unmarked) [Compound 148] | 6.70 to 7.40
CC(C)OC(=O)N1CCc2c([nH]c3ccc(Cl)cc23)C1c1ccc(Br)cc1 (centres unmarked) [Compound 47] | 7.40 to 8.10
COc1ccc(C2c3[nH]c4ccc(Cl)cc4c3CCN2C(=O)C(C)OC(C)=O)cc1 (centres unmarked) [Compound 370] | > 8.10
COc1ccc(C2c3[nH]c4ccc(Cl)cc4c3CCN2C(=O)NC2CCCCC2)cc1 (centres unmarked) [Compound 147] | 6.70 to 7.40
COC(=O)N1CCc2c([nH]c3ccc(Cl)cc23)C1c1cccc(C(F)(F)F)c1 (centres unmarked) [Compound 125] | 6.70 to 7.40
CCOC(=O)N1CCc2c([nH]c3ccc(OCc4ccccc4)cc23)C1c1ccc(OC)cc1 (centres unmarked) [Compound 278] | < 6.00
CCOC(=O)N1CCc2c([nH]c3ccc(Cl)cc23)C1c1ccc(OCc2ccccc2)cc1 (centres unmarked) [Compound 100] | 7.40 to 8.10
COC(=O)N1CCc2c([nH]c3ccc(Cl)cc23)C1c1cccc(OC)c1 (centres unmarked) [Compound 127] | 6.70 to 7.40
COc1ccc(C2NC(C(=O)NC3CCCCC3)Cc3c2[nH]c2ccc(Br)cc32)cc1 (centres unmarked) [Compound 245] | < 6.00
COc1ccc(C2c3[nH]c4ccc(Cl)cc4c3CCN2C(=O)Oc2ccc(C)cc2)cc1 (centres unmarked) [Compound 17] | > 8.10
Cc1ccc(C2c3[nH]c4ccc(Br)cc4c3CCN2C(=O)Oc2ccc(Cl)cc2)cc1 (centres unmarked) [Compound 353] | > 8.10
Cc1ccc2[nH]c3c(c2c1)CCN(c1ncccn1)C3c1ccc(C(C)C)cc1 (centres unmarked) [Compound 345] | 7.40 to 8.10
CC(C)(C)OC(=O)N[C@@H](Cc1ccccc1)C(=O)N1CCc2c([nH]c3ccc(Cl)cc23)C1c1ccccc1 (some centres unmarked) [Compound 233] | < 6.00

same assay, conditions: Homo sapiens, HeLa cells, hypoxic conditions (1% O2)

pEC50 | SMILES
6.70 to 7.40 | CCOC(=O)N1CCc2c([nH]c3ccc(Br)cc23)C1c1cnc(NC)nc1 (centres unmarked) [Compound 496]
7.40 to 8.10 | COCCOC(=O)Nc1ccc(C2c3[nH]c4ccc(Cl)cc4c3CCN2C(=O)Oc2ccc(Cl)cc2)cc1 (centres unmarked) [Compound 470]
6.00 to 6.70 | CCOC(=O)N1CCc2c([nH]c3ccc(Cl)cc23)C1c1ccc(C(=O)N2CCC(N3CCCC3)CC2)cc1 (centres unmarked) [Compound 527]
6.70 to 7.40 | COC(=O)C(=O)N1CCc2c([nH]c3ccc(Cl)cc23)C1c1ccc(OC)cc1 (centres unmarked) [Compound 485]
7.40 to 8.10 | O=C(Oc1ccc(F)cc1)N1CCc2c([nH]c3ccc(Cl)cc23)C1c1ccc(F)cc1 (centres unmarked) [Compound 452]

More lines, now with the values behind:

SMILES | pEC50
O=C(Oc1ccc(Cl)cc1)N1CCc2c([nH]c3ccc(Cl)cc23)C1c1ccc(OCCCN2CCCCC2)cc1 (centres unmarked) [Compound 433] | > 8.10
O=C(Oc1ccc(F)cc1)N1CCc2c([nH]c3ccc(Cl)cc23)C1c1ccc(OCCCCl)cc1 (centres unmarked) [Compound 712] | > 8.10
CCOC(=O)N1CCc2c([nH]c3ccc(Cl)cc23)C1c1cccc(C(=O)N(C)C)c1 (centres unmarked) [Compound 520] | 6.00 to 6.70
O=C(Oc1ccc(Cl)cc1)N1CCc2c([nH]c3ccc(Cl)cc23)C1c1ccc(OCCCN2CCCC2)cc1 (centres unmarked) [Compound 429] | > 8.10
CCOC(=O)N1CCc2c([nH]c3ccc(Cl)cc23)C1c1ccc(C(=O)N2CCN(CC)CC2)cc1 (centres unmarked) [Compound 473] | 6.70 to 7.40
CCOC(=O)N1CCc2c([nH]c3ccc(Cl)cc23)C1c1ccc(OCCOCCOC)cc1 (centres unmarked) [Compound 404] | > 8.10
O=C(Oc1ccc(Cl)cc1)N1CCc2c([nH]c3ccc(Cl)cc23)C1c1ccc(OCCCCN2CCCC2)cc1 (centres unmarked) [Compound 698] | 7.40 to 8.10
O=C(Oc1ccc(F)cc1)N1CCc2c([nH]c3ccc(Cl)cc23)C1c1ccc(OCCCCCl)cc1 (centres unmarked) [Compound 719] | > 8.10
O=C(Oc1ccc(Cl)cc1)N1CCc2c([nH]c3ccc(Cl)cc23)C1c1ccc(OCC(O)CN2CCCC2)cc1 (centres unmarked) [Compound 462] | 7.40 to 8.10
COc1ccc(OC(=O)N2CCc3c([nH]c4ccc(Cl)cc34)C2c2ccc(S(=O)(=O)N3CCOCC3)cc2)cc1 (centres unmarked) [Compound 455] | 7.40 to 8.10
CCOC(=O)N1CCc2c([nH]c3ccc(Cl)cc23)C1c1ccc(C(=O)NCCCN2CCOCC2)cc1 (centres unmarked) [Compound 534] | 6.00 to 6.70
CCOC(=O)N1CCc2c([nH]c3ccc(Cl)cc23)C1c1ccc(C(=O)NCCC2CCCN2C)cc1 (centres unmarked) [Compound 521] | 6.00 to 6.70
COCCCNCCCCOc1ccc(C2c3[nH]c4ccc(Cl)cc4c3CCN2C(=O)Oc2ccc(F)cc2)cc1 (centres unmarked) [Compound 737] | 7.40 to 8.10
CCOC(=O)N1CCc2c([nH]c3ccc(Br)cc23)C1c1cnc(N(C)C)nc1 (centres unmarked) [Compound 435] | > 8.10

same assay, conditions: Homo sapiens, HeLa cells, hypoxic conditions (1% O2, 5% CO2)

pEC50 | SMILES
6.70 to 7.40 | CC(C)(C)OC(=O)N1CCC(COc2ccc(C3c4[nH]c5ccc(Cl)cc5c4CCN3C(=O)Oc3ccc(Cl)cc3)cc2)CC1 (centres unmarked) [Compound 845]
7.40 to 8.10 | O=C(Oc1ccc(Cl)cc1)N1CCc2c([nH]c3ccc(Cl)cc23)C1c1ccc(OCCn2cncn2)cc1 (centres unmarked) [Compound 840]
7.40 to 8.10 | CC(=O)NCC(O)COc1ccc(C2c3[nH]c4ccc(Cl)cc4c3CCN2C(=O)Oc2ccc(Cl)cc2)cc1 (centres unmarked) [Compound 847]

Continued, compound first:

SMILES | pEC50
CCS(=O)(=O)Nc1ccc(C2c3[nH]c4ccc(Cl)cc4c3CCN2C(=O)Oc2ccc(Cl)cc2)cc1 (centres unmarked) [Compound 958] | 7.40 to 8.10
O=C(Oc1ccc(F)cc1)N1CCc2c([nH]c3ccc(Cl)cc23)C1c1ccc(OCC(O)CN2CCSCC2)cc1 (centres unmarked) [Compound 925] | > 8.10
